From patent US11000601B2, “Conjugated biological molecules, pharmaceutical compositions and methods” (OBI Pharma, Inc., priority 2016, dated 2021)
Values joined by “and” are separate entries in the source; they are usually repeats but may differ in a detail not shown here. Identical values can stand only once. Square brackets hold non-standard residues; d marks the D form. Peptide text beside a SMILES is read from it. * marks the point of attachment. Dolaproine = CO[C@@H]([C@@H]1CCCN1)[C@@H](C)C(=O)O; Dil = CC[C@H](C)[C@H](NC)[C@@H](CC(=O)O)OC; X1 = C[C@@H](N*)[C@@H](O)c1ccccc1; NMeV = CN[C@H](C(=O)O)C(C)C

Tested on: HPAC tumor cells (ATCC CRL-2119) human pancreatic cancer
Assay: HPAC human pancreatic cancer xenograft model in male BALB/c nude mice: tumor volume, T/C, TGI
Format: in vivo
Conditions: for Tumor Volume (mm^3), Mean: group mean; for Tumor Volume (mm^3), Mean / Tumor Volume (mm^3): QW x 4, ADC (OBI-999) and OBI-888 10 mg/kg IV, MMAE 0.191 mg/kg IP; for Tumor Volume (mm^3): individual animals
Method: The HPAC tumor cells (ATCC CRL-2119) were maintained in vitro as a monolayer culture in 1:1 mixture of Dulbecco's modified Eagle's medium and Ham's F12 medium containing 1.2 g/L sodium bicarbonate, 2.5 mM L-glutamine, 15 mM HEPES and 0.5 mM sodium pyruvate supplemented with 0.002 mg/mL insulin, 0.005 mg/mL transferrin, 40 ng/mL hydrocortisone, 10 ng/mL epidermal growth factor and 5% fetal bovine serum, 100 U/mL penicillin and 100 μg/mL streptomycin at 37° C. in an atmosphere of 5% CO2 in air. The tumor cells were routinely subcultured twice weekly by trypsin-EDTA treatment. The cells growing in an exponential growth phase were harvested and counted for tumor inoculation.
The endpoint was to determine the anti-tumor effects of testing compounds. Tumor size was measured twice weekly in two dimensions using a caliper, and the volume was expressed in mm^3 using the formula: V=0.5 a×b^2 where a and b are the long and short diameters of the tumor, respectively. The tumor size was then used for calculation of T/C values. The T/C value (in percent) is an indication of antitumor effectiveness; T and C are the mean volumes of the treated and control groups, respectively, on a given day. TGI was calculated for each group using the formula: TGI (%)=[1−(Ti−T0)/(Vi−V0)]×100; Ti is the average tumor volume of a treatment group on a given day, T0 is the average tumor volume of the treatment group on day 0, Vi is the average tumor volume of the vehicle control group on the same day with Ti, and V0 is the average tumor volume of the vehicle group on day 0.
Summary statistics, including mean and the standard error of the mean (SEM), are provided for the tumor volume of each group at each time point. Statistical analysis of difference in the tumor volume among the groups were conducted on the data obtained at the best therapeutic time point after the final dose (the 37th day after grouping). A one-way ANOVA was performed to compare the tumor volume among groups, and when a significant F-statistics (a ratio of treatment variance to the error variance) was obtained, comparisons between groups were carried out with Games-Howell test, otherwise they were carried out with Dunnett (2 sided) test. […] All data were analyzed using SPSS 17.0. p<0.05 was considered to be statistically significant.

[1] = 0.191 mg/kg IP once weekly for four weeks, single agent, Day 37

CC[C@H](C)[C@@H]([C@@H](CC(=O)N1CCC[C@H]1[C@H](OC)[C@@H](C)C(=O)N[C@H](C)[C@@H](O)c1ccccc1)OC)N(C)C(=O)[C@@H](NC(=O)[C@@H](NC)C(C)C)C(C)C [MMAE, monomethyl auristatin E] (H-[NMeV]V[Dil][Dolaproine]-X1)
antitumor activity (in words) (0.191 mg/kg IP once weekly for four weeks, single agent): minor antitumor activity
T/C [1]: 75.8%
TGI [1]: 25.2%
mean tumor size [1]: 1,644 mm^3
Tumor Volume (mm^3), Mean (Day 0): 85 mm^3
Tumor Volume (mm^3) (Day 0): 58 mm^3 and 53 mm^3 and 132 mm^3 and 72 mm^3 and 86 mm^3 and 116 mm^3 and 71 mm^3 and 91 mm^3
Tumor Volume (mm^3), Mean (Day 3): 114 mm^3
Tumor Volume (mm^3) (Day 3): 128 mm^3 (2×) and 76 mm^3 and 148 mm^3 and 82 mm^3 and 158 mm^3 and 57 mm^3 and 137 mm^3
Tumor Volume (mm^3), Mean (Day 7): 134 mm^3
Tumor Volume (mm^3) (Day 7): 104 mm^3 and 114 mm^3 and 177 mm^3 and 144 mm^3 and 97 mm^3 and 167 mm^3
Tumor Volume (mm^3), Mean (Day 10): 245 mm^3
Tumor Volume (mm^3) (Day 10): 444 mm^3 and 196 mm^3 and 219 mm^3 and 160 mm^3 and 207 mm^3
Tumor Volume (mm^3), Mean (Day 14): 385 mm^3
Tumor Volume (mm^3) (Day 14): 429 mm^3 and 418 mm^3 (2×) and 268 mm^3 and 390 mm^3
Tumor Volume (mm^3), Mean (Day 17): 464 mm^3
Tumor Volume (mm^3) (Day 17): 590 mm^3 and 452 mm^3 and 510 mm^3 and 321 mm^3 and 448 mm^3
Tumor Volume (mm^3), Mean (Day 21): 551 mm^3
Tumor Volume (mm^3) (Day 21): 649 mm^3 and 692 mm^3 and 581 mm^3 and 383 mm^3 and 451 mm^3
Tumor Volume (mm^3), Mean (Day 24): 672 mm^3
Tumor Volume (mm^3) (Day 24): 748 mm^3 and 705 mm^3 and 822 mm^3 and 511 mm^3 and 571 mm^3
Tumor Volume (mm^3), Mean (Day 28): 858 mm^3
Tumor Volume (mm^3) (Day 28): 1080 mm^3 and 888 mm^3 and 913 mm^3 and 623 mm^3 and 785 mm^3
Tumor Volume (mm^3), Mean (Day 31): 1194 mm^3
Tumor Volume (mm^3) (Day 31): 1174 mm^3 and 1340 mm^3 and 1439 mm^3 and 1030 mm^3 and 989 mm^3
Tumor Volume (mm^3), Mean (Day 35): 1449 mm^3
Tumor Volume (mm^3) (Day 35): 1650 mm^3 and 1656 mm^3 and 1496 mm^3 and 1236 mm^3 and 1208 mm^3
Tumor Volume (mm^3), Mean (Day 37): 1644 mm^3
Tumor Volume (mm^3) (Day 37): 1652 mm^3 and 1963 mm^3 and 1828 mm^3 and 1196 mm^3 and 1580 mm^3
